The structures appear in SMILES notation. “And” between values parts separate entries of the source, which are not always exact repeats. Equal entries are not always repeated.

The target of this test is T1, USP7 (Homo sapiens, UniProt Q93009).
T1 construct: full length human USP7 protein; made in house
T1 sequence (Q93009 whole entry): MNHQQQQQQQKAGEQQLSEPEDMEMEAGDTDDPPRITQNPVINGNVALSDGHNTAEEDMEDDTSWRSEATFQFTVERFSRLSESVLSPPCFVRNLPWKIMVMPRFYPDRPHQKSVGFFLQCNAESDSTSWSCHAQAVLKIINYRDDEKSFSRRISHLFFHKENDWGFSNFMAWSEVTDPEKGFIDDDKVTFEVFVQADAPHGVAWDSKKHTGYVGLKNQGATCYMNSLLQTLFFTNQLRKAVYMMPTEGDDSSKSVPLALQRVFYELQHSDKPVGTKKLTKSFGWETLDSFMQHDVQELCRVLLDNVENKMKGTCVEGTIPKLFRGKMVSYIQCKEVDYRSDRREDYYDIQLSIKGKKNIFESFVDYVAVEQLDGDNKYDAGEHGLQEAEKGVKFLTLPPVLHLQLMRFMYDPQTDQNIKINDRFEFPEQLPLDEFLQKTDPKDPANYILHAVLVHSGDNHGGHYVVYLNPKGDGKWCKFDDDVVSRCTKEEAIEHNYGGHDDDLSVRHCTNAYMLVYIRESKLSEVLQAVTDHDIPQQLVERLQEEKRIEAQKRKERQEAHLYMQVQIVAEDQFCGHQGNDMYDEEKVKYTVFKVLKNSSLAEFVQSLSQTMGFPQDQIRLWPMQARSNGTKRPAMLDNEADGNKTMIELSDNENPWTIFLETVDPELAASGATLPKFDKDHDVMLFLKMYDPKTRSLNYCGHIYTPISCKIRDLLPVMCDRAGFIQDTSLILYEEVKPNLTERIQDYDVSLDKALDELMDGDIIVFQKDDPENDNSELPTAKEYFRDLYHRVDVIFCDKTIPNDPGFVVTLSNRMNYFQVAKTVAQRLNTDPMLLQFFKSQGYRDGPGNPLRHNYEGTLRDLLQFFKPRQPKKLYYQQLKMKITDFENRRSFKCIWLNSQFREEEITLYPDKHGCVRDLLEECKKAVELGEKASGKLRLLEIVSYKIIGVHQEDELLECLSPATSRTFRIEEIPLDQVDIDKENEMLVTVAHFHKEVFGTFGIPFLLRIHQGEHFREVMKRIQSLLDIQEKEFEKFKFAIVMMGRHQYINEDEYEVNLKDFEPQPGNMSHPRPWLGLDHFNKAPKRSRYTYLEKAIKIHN
Briefly: USP7, Ub-PLA2 assay. Format: biochemical. Particulars: Ub-PLA2 / NBD C6-HPC fluorescence, 30 minute preincubation; read-out: EC50 for inhibition of USP7. The essentials:
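Compounds tested against USP7 with DMSO vehicle control and NEM-treated wells as background. Fluorescence (RFU) read-out; % inhibition normalized per plate to mean DMSO and NEM controls.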
With `COCCNC(=O)CNC(=O)c1cc([N+](=O)[O-])c(Sc2c(Cl)cncc2Cl)s1` [Example 214, 5-((3,5-dichloropyridin-4-yl)thio)-N-(2-((2-methoxyethyl)amino)-2-oxoethyl)-4-nitrothiophene-2-carboxamide], the EC50 (in general, the concentration at which the effect is half-maximal) lay within 1 to 10 µM.
To `CSc1ccc(NC(=O)c2cc([N+](=O)[O-])c(Sc3c(Cl)cncc3Cl)s2)cc1` [Example 174, 5-((3,5-dichloropyridin-4-yl)thio)-N-(4-(methylthio)phenyl)-4-nitrothiophene-2-carboxamide] belongs at most 1 µM; to `O=C(c1cc([N+](=O)[O-])c(Sc2c(Cl)cncc2Cl)s1)N1CCC(CO)CC1` [Example 73, (5-((3,5-dichloropyridin-4-yl)thio)-4-nitrothiophen-2-yl)(4-(hydroxymethyl)piperidin-1-yl)methanone], 1 to 10 µM; to `COC(=O)c1cc([N+](=O)[O-])c(Sc2nc3cc(Cl)c(F)cc3[nH]2)s1` [Example 265, Methyl 5-((5-chloro-6-fluoro-1H-benzo[d]imidazol-2-yl)thio)-4-nitrothiophene-2-carboxylate], 1 to 10 µM.
To `O=C(NCCOc1ccccc1)c1cc([N+](=O)[O-])c(Sc2c(Cl)cncc2Cl)s1` [Example 54, 5-((3,5-dichloropyridin-4-yl)thio)-4-nitro-N-(2-phenoxyethyl)thiophene-2-carboxamide] belongs 1 to 10 µM; to `COc1cncc(CNC(=O)c2cc([N+](=O)[O-])c(Sc3c(Cl)cncc3Cl)s2)c1` [Example 239, 5-((3,5-dichloropyridin-4-yl)thio)-N-((5-methoxypyridin-3-yl)methyl)-4-nitrothiophene-2-carboxamide], at most 1 µM.
For the compound `O=C(Nc1cc(F)ccc1F)c1cc([N+](=O)[O-])c(Sc2c(Cl)cncc2Cl)s1` [Example 159, 5-((3,5-dichloropyridin-4-yl)thio)-N-(2,5-difluorophenyl)-4-nitrothiophene-2-carboxamide], the concentration for a half-maximal effect (EC50) is at most 1 µM.
To `O=C(NCc1ccc(O)cc1)c1cc([N+](=O)[O-])c(Sc2c(Cl)cncc2Cl)s1` [Example 165, 5-((3,5-dichloropyridin-4-yl)thio)-N-(4-hydroxybenzyl)-4-nitrothiophene-2-carboxamide] belongs at most 1 µM; to `O=C(NCCc1ccc(Br)cc1)c1cc([N+](=O)[O-])c(Sc2c(Cl)cncc2Cl)s1` [Example 105, N-(4-bromophenethyl)-5-((3,5-dichloropyridin-4-yl)thio)-4-nitrothiophene-2-carboxamide], at most 1 µM.
To `CC(=O)c1cc([N+](=O)[O-])c(Sc2c(F)c(F)c(Cl)c(F)c2F)s1` [Example 272, 1-(5-((4-chloro-2,3,5,6-tetrafluorophenyl)thio)-4-nitrothiophen-2-yl)ethanone] belongs 1 to 10 µM and > 10 µM; to `O=C(NCCCN1CCC(O)CC1)c1cc([N+](=O)[O-])c(Sc2c(Cl)cncc2Cl)s1` [Example 225, 5-((3,5-dichloropyridin-4-yl)thio)-N-(3-(4-hydroxypiperidin-1-yl)propyl)-4-nitrothiophene-2-carboxamide], at most 1 µM.
The same measure for `O=C(NCCCN1CCCCC1)c1cc([N+](=O)[O-])c(Sc2ccc(Cl)cc2Cl)s1` [Example 249, 5-((2,4-dichlorophenyl)thio)-4-nitro-N-(3-(piperidin-1-yl)propyl)thiophene-2-carboxamide]: 1 to 10 µM; for `CN1CCC(NC(=O)Nc2cc([N+](=O)[O-])c(Sc3c(Cl)cncc3Cl)s2)CC1` [Example 270, 1-(5-((3,5-dichloropyridin-4-yl)thio)-4-nitrothiophen-2-yl)-3-(1-methylpiperidin-4-yl)urea]: 1 to 10 µM; for `O=Cc1cc([N+](=O)[O-])c(Sc2ccc(Cl)cc2Cl)s1` [Example 32, 5-(2,4-dichlorophenylsulfanyl)-4-nitrothiophene-2-carbaldehyde]: 1 to 10 µM.
In the case of `O=C(NCCCN1CCCC1=O)c1cc([N+](=O)[O-])c(Sc2ccc(Cl)cc2Cl)s1` [Example 82, 5-((2,4-dichlorophenyl)thio)-4-nitro-N-(3-(2-oxopyrrolidin-1-yl)propyl)thiophene-2-carboxamide], the EC50 fell in the range of 1 to 10 µM.
To `CS(=O)(=O)N1CCC(NC(=O)c2cc([N+](=O)[O-])c(Sc3c(Cl)cncc3Cl)s2)CC1` [Example 233, 5-((3,5-dichloropyridin-4-yl)thio)-N-(1-(methylsulfonyl)piperidin-4-yl)-4-nitrothiophene-2-carboxamide] belongs at most 1 µM; to `O=C(NCc1ccc(Cl)cc1)c1cc([N+](=O)[O-])c(Sc2c(Cl)cncc2Cl)s1` [Example 106, N-(4-chlorobenzyl)-5-((3,5-dichloropyridin-4-yl)thio)-4-nitrothiophene-2-carboxamide], at most 1 µM; to `Nc1ccc(NC(=O)c2cc([N+](=O)[O-])c(Sc3c(Cl)cncc3Cl)s2)cc1` [Example 235, N-(4-aminophenyl)-5-((3,5-dichloropyridin-4-yl)thio)-4-nitrothiophene-2-carboxamide], at most 1 µM.
To `O=C(Nc1cccc(F)c1)c1cc([N+](=O)[O-])c(Sc2c(Cl)cncc2Cl)s1` [Example 138, 5-((3,5-dichloropyridin-4-yl)thio)-N-(3-fluorophenyl)-4-nitrothiophene-2-carboxamide] belongs at most 1 µM; to `COCCNC(=O)c1cc([N+](=O)[O-])c(Sc2c(Cl)cncc2Cl)s1` [Example 53, 5-((3,5-dichloropyridin-4-yl)thio)-N-(2-methoxyethyl)-4-nitrothiophene-2-carboxamide], 1 to 10 µM; to `O=C(NC1CCCCC1)c1cc([N+](=O)[O-])c(Sc2c(Cl)cncc2Cl)s1` [Example 154, N-cyclohexyl-5-((3,5-dichloropyridin-4-yl)thio)-4-nitrothiophene-2-carboxamide], at most 1 µM.
Consider `CN1CCC(NC(=O)CNC(=O)c2cc([N+](=O)[O-])c(Sc3c(Cl)cncc3Cl)s2)CC1` [Example 222, 5-((3,5-dichloropyridin-4-yl)thio)-N-(2-((1-methylpiperidin-4-yl)amino)-2-oxoethyl)-4-nitrothiophene-2-carboxamide], for which the EC50 was at most 1 µM.
To `CC(C)(C)NC(=O)c1cc([N+](=O)[O-])c(Sc2c(Cl)cncc2Cl)s1` [Example 153, N-(tert-butyl)-5-((3,5-dichloropyridin-4-yl)thio)-4-nitrothiophene-2-carboxamide] belongs at most 1 µM; to `COC(=O)c1ccc(CNC(=O)c2cc([N+](=O)[O-])c(Sc3c(Cl)cncc3Cl)s2)cc1` [Example 163, methyl 4-((5-((3,5-dichloropyridin-4-yl)thio)-4-nitrothiophene-2-carboxamido)methyl)benzoate], at most 1 µM; to `CS(=O)(=O)c1ccc(CNC(=O)c2cc([N+](=O)[O-])c(Sc3c(Cl)cncc3Cl)s2)cc1` [Example 102, 5-((3,5-dichloropyridin-4-yl)thio)-N-(4-(methylsulfonyl)benzyl)-4-nitrothiophene-2-carboxamide], at most 1 µM.
The same measure for `O=C(Nc1cc(C(F)(F)F)n[nH]1)c1cc([N+](=O)[O-])c(Sc2c(Cl)cncc2Cl)s1` [Example 164, 5-((3,5-dichloropyridin-4-yl)thio)-4-nitro-N-(3-(trifluoromethyl)-1H-pyrazol-5-yl)thiophene-2-carboxamide]: at most 1 µM; for `CN(C)c1ccc(NC(=O)c2cc([N+](=O)[O-])c(Sc3c(Cl)cncc3Cl)s2)cc1` [Example 86, 5-((3,5-dichloropyridin-4-yl)thio)-N-(4-(dimethylamino)phenyl)-4-nitrothiophene-2-carboxamide]: 1 to 10 µM.
To `CSc1cccc(CN(C)C(=O)c2cc([N+](=O)[O-])c(Sc3c(Cl)cncc3Cl)s2)c1` [Example 127, 5-((3,5-dichloropyridin-4-yl)thio)-N-methyl-N-(3-(methylthio)benzyl)-4-nitrothiophene-2-carboxamide] belongs at most 1 µM; to `O=C(NCc1ccc(F)cc1)c1cc([N+](=O)[O-])c(Sc2c(Cl)cncc2Cl)s1` [Example 107, 5-((3,5-dichloropyridin-4-yl)thio)-N-(4-fluorobenzyl)-4-nitrothiophene-2-carboxamide], at most 1 µM; to `O=C(NCC(=O)N1CCC(O)CC1)c1cc([N+](=O)[O-])c(Sc2c(Cl)cncc2Cl)s1` [Example 211, 5-((3,5-dichloropyridin-4-yl)thio)-N-(2-(4-hydroxypiperidin-1-yl)-2-oxoethyl)-4-nitrothiophene-2-carboxamide], 1 to 10 µM.
As for `N#Cc1cc(C(=O)Nc2cnc3ccccc3c2)sc1Sc1c(Cl)cncc1Cl` [Example 207, 4-cyano-5-((3,5-dichloropyridin-4-yl)thio)-N-(quinolin-3-yl)thiophene-2-carboxamide], the EC50 is 1 to 10 µM.
To `O=C(NC12CC3CC(CC(O)(C3)C1)C2)c1cc([N+](=O)[O-])c(Sc2c(Cl)cncc2Cl)s1` [Example 176, 5-((3,5-dichloropyridin-4-yl)thio)-N-((1r,3s,5R,7S)-3-hydroxyadamantan-1-yl)-4-nitrothiophene-2-carboxamide] belongs at most 1 µM; to `O=C(Nc1ccc2c(c1)CCC2)c1cc([N+](=O)[O-])c(Sc2c(Cl)cncc2Cl)s1` [Example 112], at most 1 µM.
The same measure for `O=C(Nc1ccc(F)cc1C(F)(F)F)c1cc([N+](=O)[O-])c(Sc2c(Cl)cncc2Cl)s1` [Example 139, 5-((3,5-dichloropyridin-4-yl)thio)-N-(4-fluoro-2-(trifluoromethyl)phenyl)-4-nitrothiophene-2-carboxamide]: at most 1 µM.
To `CC(c1cc([N+](=O)[O-])c(Sc2ccc(Cl)cc2Cl)s1)N(C)C` (stereo not drawn) [Example 29, 1-[5-(2,4-dichlorophenyl)sulfanyl-4-nitro-2-thienyl]-N,N-dimethyl-ethanamine] belongs over 10 µM; to `Cc1nc(NC(=O)c2cc([N+](=O)[O-])c(Sc3c(Cl)cncc3Cl)s2)sc1C` [Example 88, 5-((3,5-dichloropyridin-4-yl)thio)-N-(4,5-dimethylthiazol-2-yl)-4-nitrothiophene-2-carboxamide], 1 to 10 µM.

The values are drawn from patent publication US8680139B2 (Progenra, priority 2009, dated 2014).
